Results taken from PubChem BioAssay (NCI).
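Exposure lasted 48 hours, with cells grown in 96-well plates and compounds tested at five concentrations. TGI denotes the concentration required for complete inhibition of growth.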

Experiments:
Test in all cases: NCI-60 cell line screen, 48 h
786-0 renal = test system: 786-0 renal
A498 renal = test system: A498 renal
A549 NSCLC = test system: A549 NSCLC
ACHN renal = test system: ACHN renal
CAKI-1 renal = test system: CAKI-1 renal
CCRF-CEM leukemia = test system: CCRF-CEM leukemia
COLO 205 colon = test system: COLO 205 colon
DLD-1 colon = test system: DLD-1 colon
DMS 114 small cell lung = test system: DMS 114 small cell lung
DMS 273 small cell lung = test system: DMS 273 small cell lung
EKVX NSCLC = test system: EKVX NSCLC
HCC-2998 colon = test system: HCC-2998 colon
HCT-116 colon = test system: HCT-116 colon
HCT-15 colon = test system: HCT-15 colon
HL-60(TB) leukemia = test system: HL-60(TB) leukemia
HOP-18 NSCLC = test system: HOP-18 NSCLC
HOP-62 NSCLC = test system: HOP-62 NSCLC
HOP-92 NSCLC = test system: HOP-92 NSCLC
HT29 colon = test system: HT29 colon
IGROV1 ovarian = test system: IGROV1 ovarian
K-562 leukemia = test system: K-562 leukemia
KM12 colon = test system: KM12 colon
KM20L2 colon = test system: KM20L2 colon
LOX IMVI melanoma = test system: LOX IMVI melanoma
M14 melanoma = test system: M14 melanoma
M19-MEL melanoma = test system: M19-MEL melanoma
MALME-3M melanoma = test system: MALME-3M melanoma
MOLT-4 leukemia = test system: MOLT-4 leukemia
NCI-H226 lung = test system: NCI-H226 lung
NCI-H23 lung = test system: NCI-H23 lung
NCI-H460 lung = test system: NCI-H460 lung
NCI-H522 lung = test system: NCI-H522 lung
OVCAR-3 ovarian = test system: OVCAR-3 ovarian
OVCAR-4 ovarian = test system: OVCAR-4 ovarian
OVCAR-5 ovarian = test system: OVCAR-5 ovarian
OVCAR-8 ovarian = test system: OVCAR-8 ovarian
RPMI-8226 leukemia = test system: RPMI-8226 leukemia
RXF 393 renal = test system: RXF 393 renal
SF-268 CNS = test system: SF-268 CNS
SF-295 CNS = test system: SF-295 CNS
SF-539 CNS = test system: SF-539 CNS
SK-MEL-2 melanoma = test system: SK-MEL-2 melanoma
SK-MEL-28 melanoma = test system: SK-MEL-28 melanoma
SK-MEL-5 melanoma = test system: SK-MEL-5 melanoma
SK-OV-3 ovarian = test system: SK-OV-3 ovarian
SN12C renal = test system: SN12C renal
SNB-19 CNS = test system: SNB-19 CNS
SNB-75 CNS = test system: SNB-75 CNS
SNB-78 CNS = test system: SNB-78 CNS
SR leukemia = test system: SR leukemia
SW-620 colon = test system: SW-620 colon
TK-10 renal = test system: TK-10 renal
U251 CNS = test system: U251 CNS
UACC-257 melanoma = test system: UACC-257 melanoma
UACC-62 melanoma = test system: UACC-62 melanoma
UO-31 renal = test system: UO-31 renal
XF 498 CNS = test system: XF 498 CNS
BT-549 breast = test system: BT-549 breast
DU-145 prostate = test system: DU-145 prostate
LXFL 529 NSCLC = test system: LXFL 529 NSCLC
MCF7 breast = test system: MCF7 breast
MDA-MB-231 breast = test system: MDA-MB-231 breast
MDA-MB-435 = test system: MDA-MB-435
PC-3 prostate = test system: PC-3 prostate
T-47D breast = test system: T-47D breast

CC1(C)O[C@@H](C[C@]2(C#N)C[C@H](CCl)OC(C)(C)O2)C[C@@H](C#N)O1
TGI (786-0 renal): > 100 µM | TGI (A498 renal): > 100 µM | TGI (A549 NSCLC): > 100 µM | TGI (ACHN renal): > 100 µM | TGI (CAKI-1 renal): > 100 µM | TGI (CCRF-CEM leukemia): > 100 µM | TGI (COLO 205 colon): > 100 µM | TGI (DLD-1 colon): > 100 µM | TGI (DMS 114 small cell lung): > 100 µM | TGI (DMS 273 small cell lung): > 100 µM | TGI (EKVX NSCLC): > 100 µM | TGI (HCC-2998 colon): > 100 µM | TGI (HCT-116 colon): > 100 µM | TGI (HCT-15 colon): > 100 µM | TGI (HL-60(TB) leukemia): > 100 µM | TGI (HOP-18 NSCLC): > 100 µM | TGI (HOP-62 NSCLC): > 100 µM | TGI (HOP-92 NSCLC): > 100 µM | TGI (HT29 colon): > 100 µM | TGI (IGROV1 ovarian): > 100 µM | TGI (K-562 leukemia): > 100 µM | TGI (KM12 colon): > 100 µM | TGI (KM20L2 colon): > 100 µM | TGI (LOX IMVI melanoma): > 100 µM | TGI (M14 melanoma): > 100 µM | TGI (M19-MEL melanoma): > 100 µM | TGI (MALME-3M melanoma): > 100 µM | TGI (MOLT-4 leukemia): > 100 µM | TGI (NCI-H226 lung): > 100 µM | TGI (NCI-H23 lung): > 100 µM | TGI (NCI-H460 lung): > 100 µM | TGI (NCI-H522 lung): > 100 µM | TGI (OVCAR-3 ovarian): > 100 µM | TGI (OVCAR-4 ovarian): > 100 µM | TGI (OVCAR-5 ovarian): > 100 µM | TGI (OVCAR-8 ovarian): > 100 µM | TGI (RPMI-8226 leukemia): > 100 µM | TGI (RXF 393 renal): > 100 µM | TGI (SF-268 CNS): > 100 µM | TGI (SF-295 CNS): > 100 µM | TGI (SF-539 CNS): > 100 µM | TGI (SK-MEL-2 melanoma): > 100 µM | TGI (SK-MEL-28 melanoma): > 100 µM | TGI (SK-MEL-5 melanoma): > 100 µM | TGI (SK-OV-3 ovarian): > 100 µM | TGI (SN12C renal): > 100 µM | TGI (SNB-19 CNS): > 100 µM | TGI (SNB-75 CNS): > 100 µM | TGI (SNB-78 CNS): > 100 µM | TGI (SR leukemia): > 100 µM | TGI (SW-620 colon): > 100 µM | TGI (TK-10 renal): > 100 µM | TGI (U251 CNS): > 100 µM | TGI (UACC-257 melanoma): > 100 µM | TGI (UACC-62 melanoma): > 100 µM | TGI (UO-31 renal): > 100 µM | TGI (XF 498 CNS): > 100 µM

CN(C)CC1CCC(CN(C)C)C(=O)C1=O (stereo unspecified)
TGI (786-0 renal): 29.7 µM | TGI (A498 renal): 31.8 µM | TGI (A549 NSCLC): 25.1 µM | TGI (ACHN renal): 11.9 µM | TGI (BT-549 breast): 20.9 µM | TGI (CAKI-1 renal): 3.82 µM | TGI (CCRF-CEM leukemia): 4.51 µM | TGI (COLO 205 colon): 3.5 µM | TGI (DLD-1 colon): 7.25 µM | TGI (DMS 114 small cell lung): 12.9 µM | TGI (DMS 273 small cell lung): 31.2 µM | TGI (DU-145 prostate): 30.1 µM | TGI (EKVX NSCLC): 47.2 µM | TGI (HCC-2998 colon): 35.4 µM | TGI (HCT-116 colon): 7.55 µM | TGI (HCT-15 colon): 7.78 µM | TGI (HL-60(TB) leukemia): 7.17 µM | TGI (HOP-18 NSCLC): 3.07 µM | TGI (HOP-62 NSCLC): 35.3 µM | TGI (HOP-92 NSCLC): 3.81 µM | TGI (HT29 colon): 16.5 µM | TGI (IGROV1 ovarian): 33.2 µM | TGI (K-562 leukemia): 6.15 µM | TGI (KM12 colon): 28.1 µM | TGI (KM20L2 colon): 30.8 µM | TGI (LOX IMVI melanoma): 22.2 µM | TGI (LXFL 529 NSCLC): 3.09 µM | TGI (M14 melanoma): 12.5 µM | TGI (M19-MEL melanoma): 33.9 µM | TGI (MALME-3M melanoma): 3.6 µM | TGI (MCF7 breast): 8.6 µM | TGI (MDA-MB-231 breast): 19.5 µM | TGI (MDA-MB-435): 31.7 µM | TGI (MOLT-4 leukemia): 4.96 µM | TGI (NCI-H226 lung): 10.8 µM | TGI (NCI-H23 lung): 22.1 µM | TGI (NCI-H460 lung): 36.4 µM | TGI (NCI-H522 lung): 1.38 µM | TGI (OVCAR-3 ovarian): 5.32 µM | TGI (OVCAR-4 ovarian): 18.3 µM | TGI (OVCAR-5 ovarian): 30.9 µM | TGI (OVCAR-8 ovarian): 9.08 µM | TGI (PC-3 prostate): 31.1 µM | TGI (RPMI-8226 leukemia): 18.1 µM | TGI (RXF 393 renal): 3.47 µM | TGI (SF-268 CNS): 10.9 µM | TGI (SF-295 CNS): 32.4 µM | TGI (SF-539 CNS): 12.6 µM | TGI (SK-MEL-2 melanoma): 34.6 µM | TGI (SK-MEL-28 melanoma): 20.6 µM | TGI (SK-MEL-5 melanoma): 30 µM | TGI (SK-OV-3 ovarian): 38.7 µM | TGI (SN12C renal): 32.7 µM | TGI (SNB-19 CNS): 29.9 µM | TGI (SNB-75 CNS): 30.6 µM | TGI (SR leukemia): 5.08 µM | TGI (SW-620 colon): 3.33 µM | TGI (T-47D breast): 5.36 µM | TGI (TK-10 renal): 9.96 µM | TGI (U251 CNS): 26.7 µM | TGI (UACC-257 melanoma): 6.44 µM | TGI (UACC-62 melanoma): 31.3 µM | TGI (UO-31 renal): 11 µM | TGI (XF 498 CNS): 4.95 µM
